Experiments:
[1] = tested on: dry eye syndrome model New Zealand rabbits; assay: Dry eye syndrome experiment (benzalkonium chloride model): corneal fluorescein sodium staining; type: in vivo, male New Zealand White rabbits
Experimental: Pharmacological Example 6: Therapeutic Pharmacodynamic Experiment on Dry Eye Syndrome in New Zealand Rabbits
(§1) Positive control drug: Fluorometholone Eye Drops (specification: 5 mL/5 mg; Santen Pharmaceutical (CHINA) Co., Ltd.; Lot No.: 1FM6625) was used as the positive control drug and stored at room temperature protected from light until use.
Thirty male New Zealand White rabbits (conventional grade) were prepared. Six rabbits were randomly selected as the blank control group, and the remaining animals were administered 0.1% benzalkonium chloride to the left eye twice daily (morning and evening) , 10 µL/animal each time. […] During the administration, all animals except the blank control group were administered 10 µL of 0.1% benzalkonium chloride to the left eye once daily to maintain dry eye symptoms..
• Test time: D3, D7, D15; • Test animals: All animals were tested before grouping; all enrolled surviving animals were tested after administration; • Test method: 2 µL of 1% Fluorescein sodium was dropped into the conjunctival sac. After 5 s, the excess fluorescein was rinsed with 0.9% normal saline. The conjunctival staining was observed under a slit lamp with cobalt blue diffused light.
(§2) The normality and homogeneity of variance were tested by Levene's test. If there was no statistical significance (P > 0.05), one-way analysis of variance (ANOVA) was used for statistical analysis. If ANOVA was statistically significant (P ≤ 0.05), LSD test (parametric method) was used for comparative analysis. If the variance was heterogeneous (P ≤ 0.05), Kruskal-Wallis test was used. If the Kruskal-Wallis test was statistically significant (P ≤ 0.05), Dunnett's test (nonparametric method) was used for comparative analysis.

[2] = tested on: intraocular pressure of guinea pigs; assay: Adverse reactions of continuous ocular administration: intraocular pressure; type: in vivo
Experimental: Pharmacological Example 9: Experiment on Adverse Reactions of Continuous Ocular Administration in Guinea Pigs
Test samples: Compounds 17 and 23 were prepared as 5 mg/5 mL ophthalmic suspensions with reference to the formulation of Fluorometholone Eye Drops, and stored at room temperature protected from light until use.
Positive control drug: Fluorometholone Eye Drops (specification: 5 mL/5 mg; Santen Pharmaceutical (CHINA) Co., Ltd.; Lot No.: 1FM6545), Loteprednol Etabonate Eye Drops (specification 0.5% (5 mg/mL); Shandong Bausch & Lomb Freda Pharmaceutical Co., Ltd; Lot No. 386521), stored at room temperature protected from light until use.
Animals: 50 guinea pigs, conventional grade, with an equal number of males and females, weighing 300-350 g..
Animal grouping: After 5 days of adaptive feeding, the guinea pigs were randomly divided into 5 groups based on body weight. Group 1 was the blank control group, and 50 µL of normal saline was dropped into the eyes (bilateral) of the guinea pigs. Groups 2 to 5 were the fluorometholone group, loteprednol group, compound 17 group, and compound 23 group, respectively, and the corresponding drugs were dropped into the eyes (bilateral) of the guinea pigs. Table 19. Animal grouping and drug administration dosages for the experiment on adverse reactions of continuous ocular administration in guinea pigs
Intraocular pressure measurement time: The intraocular pressure of animals in each group was measured before administration and on days 7, 14, 21, and 28 post-administration.

[3] = tested on: uveitis model rats; assay: Anti-uveitis pharmacodynamic experiment (LPS model): ocular pathological score; type: in vivo, male SD rats
Experimental: Pharmacodynamic Experiment on Anti-Uveitis
Positive control drug: Fluorometholone Eye Drops (specification: 5 mL/5 mg; Santen Pharmaceutical (CHINA) Co., Ltd.; Lot No. : J20180068) was used as the positive control drug and stored at room temperature protected from light until use.
Fifty male SD rats underwent a one-week adaptive feeding period. […] Groups 2 to 5 were used to establish rat uveitis models by single subcutaneous injection of 1 mg/kg LPS (Salmonella; Sigma; Lot No. 0000164114) into the plantar tissue of the hindpaw. Salmonella endotoxin was dissolved in normal saline to prepare an injection solution at a concentration of 2 mg/mL, which was injected subcutaneously at 1 mg/kg into the plantar tissue of one paw of the rats. Group 1 was injected with an equal volume of normal saline.
At the end of the experiment, photos of the rats' eyes were taken using a slit-lamp microscope, and the differences in ocular lesions of rats among groups were compared and analyzed.
Statistical analysis was performed using SPSS software. Measurement data were expressed as mean ± standard deviation. One-way ANOVA was used for intergroup comparisons. For data with homogeneous variance, LSD test was used; for data with heterogeneous variance, Dunnett-t test was used. A value of P < 0.05 was considered statistically significant.

[4] = tested on: dry eye syndrome model New Zealand rabbits; assay: Dry eye syndrome experiment (benzalkonium chloride model): tear secretion test with phenol red cotton threads; type: in vivo, male New Zealand White rabbits
Experimental: as §1
(§3) Thirty male New Zealand White rabbits (conventional grade) were prepared. Six rabbits were randomly selected as the blank control group, and the remaining animals were administered 0.1% benzalkonium chloride to the left eye twice daily (morning and evening) , 10 µL/animal each time. On day 6 of modeling, tear secretion was measured using phenol red cotton threads to determine whether the model was successfully established. […] During the administration, all animals except the blank control group were administered 10 µL of 0.1% benzalkonium chloride to the left eye once daily to maintain dry eye symptoms..
• Test time: D3, D7, D15; • Test animals: All animals were tested before grouping; all enrolled surviving animals were tested after administration; • Test method: Tear secretion was measured using phenol red cotton threads. The tear secretion test paper was folded and placed at the middle and outer 1/3 of the rabbit palpebral conjunctival sac for 1 min. The test paper was then removed, observed, and recorded for its wetting length. The test was repeated 3 times, and the values were averaged.
as §2

[5] = tested on: dry eye syndrome model New Zealand rabbits; assay: Dry eye syndrome experiment (benzalkonium chloride model): tear film break-up time; type: in vivo, male New Zealand White rabbits
Experimental: as §1, §3
• Test time: D3, D7, D15; • Test animals: All animals were tested before grouping; all enrolled surviving animals were tested after administration; • Test method: 1% Fluorescein sodium was dropped onto the inner side of the rabbit's lower eyelid, 10 µL/animal. The rabbit's eyes were closed and gently massaged to evenly distribute the fluorescein sodium on the eye surface. The rabbit's eyes were then sequentially placed under a slit lamp. The tear film break-up time was observed and recorded as the time from eye opening to the appearance of the first dark spot. If no dark spot appeared, the time was calculated as 60 seconds.
as §2

[6] = tested on: inflammatory bowel disease model rats; assay: Inflammatory bowel disease experiment (TNBS model): macroscopic injury score of the colon; type: in vivo; settings: colon, day 5 after TNBS; 2 mg/kg once a day (compounds intraintestinally, dexamethasone by gavage)
Experimental: Pharmacological Example 7: Pharmacodynamic Experiment on Inflammatory Bowel Disease in Rats
Test samples: The jet-milled compounds 23 and 34 were accurately weighed and prepared as 2 mg/mL clear solutions using anhydrous ethanol, respectively. The solutions were then diluted to 0.2 mg/mL with double-distilled water as the test samples, and stored at room temperature protected from light until use.
Animals in Groups 2 to 5 were subjected to trinitrobenzene sulfonic acid (TNBS) modeling as follows: A 5% TNBS aqueous solution was adjusted to 20 mg/mL TNBS (50% ethanol solution) with alcohol and water. After fasting for 24 h, the rats were anesthetized using an inhalation anesthesia machine. A silicone hose was inserted approximately 8 cm into the anus, and then TNBS was injected at a dose of 50 mg/kg. After injection, the rats were placed vertically for 1 min to prevent the backflow of TNBS solution. Then, the rats were placed into their cages for observation until the animals recovered.
Drug administration started one day before modeling, with one dose administered 1 hour before modeling and then once a day for 5 consecutive days. […] Table 14. Animal grouping and drug administration dosages
The experiment ended on day 5 after TNBS modeling. After isoflurane anesthesia, blood was collected from the hearts, and the rats were euthanized. The abdominal cavity was rapidly opened, and the macroscopic injury scoring of the colon in rats was performed based on the adhesion, obstruction, thickening of the colonic wall, colonic congestion, and necrosis in the colon area. After clearing the colonic contents, the colonic samples were longitudinally incised. The proximal 2/3 of the colon was excised, prepared into Swiss rolls, and stored in 4% neutral buffered formalin for histopathological analysis. Tissues were trimmed, dehydrated, paraffin-embedded, and sectioned (approximately 5 µm thickness), stained with hematoxylin-eosin (HE), and observed for pathological changes. Pathologists performed blind scoring of colonic lesions.
Quantitative indices were first subjected to Bartlett's test for homogeneity of variance. When the variance was homogeneous (P > 0.05), one-way analysis of variance (ANOVA) was used for a statistical test; if there was statistical significance (P ≤ 0.05), Dunnett's t-test (Dunnett method) was used to compare intergroup differences; if there was no statistical significance (P > 0.05), the statistical analysis was concluded. When the variance was heterogeneous (P ≤ 0.05), Kruskal-Wallis H rank-sum test (K-W method) was used for statistical analysis: if there was statistical significance (P ≤ 0.05), Mann-Whitney U test (M-W method) was further performed to compare intergroup differences; if there was no statistical significance (P > 0.05), the statistical analysis was concluded.

[7] = D3, 1 mg/mL, 50 µL/eye, 3 times a day for 14 days
[8] = D7, 1 mg/mL, 50 µL/eye, 3 times a day for 14 days
[9] = D15, 1 mg/mL, 50 µL/eye, 3 times a day for 14 days

CC(=O)[C@@]1(O)CC[C@H]2[C@@H]3C[C@H](C)C4=CC(=O)C=C[C@]4(C)[C@@]3(F)[C@@H](O)C[C@@]21C [Fluorometholone, reference compound]
Corneal fluorescein sodium staining score D3 [1, 7]: 1.67 ± 0.82
Corneal fluorescein sodium staining score D7 [1, 8]: 1.17 ± 0.41
Corneal fluorescein sodium staining score D15 [1, 9]: 1.0 ± 0
inflammatory response on the ocular surface / ocular symptoms ([1]; compared with the model group): significantly inhibited the inflammatory response on the ocular surface on day 15
intraocular pressure after continuous ocular administration [2]: intraocular pressure elevation was detected on day 7
Intraocular pressure of guinea pigs (mmHg) D0 ([2]; D0, before administration, 50 µL/eye (compounds and fluorometholone 1 mg/mL, loteprednol 5 mg/mL)): 14.3 ± 1.5 mmHg
Intraocular pressure of guinea pigs (mmHg) D7 ([2]; D7, 50 µL/eye (compounds and fluorometholone 1 mg/mL, loteprednol 5 mg/mL)): 20.5 ± 3.3 mmHg
Intraocular pressure of guinea pigs (mmHg) D14 ([2]; D14, 50 µL/eye (compounds and fluorometholone 1 mg/mL, loteprednol 5 mg/mL)): 21.2 ± 2.1 mmHg
Intraocular pressure of guinea pigs (mmHg) D21 ([2]; D21, 50 µL/eye (compounds and fluorometholone 1 mg/mL, loteprednol 5 mg/mL)): 23.0 ± 3.1 mmHg
Intraocular pressure of guinea pigs (mmHg) D28 ([2]; D28, 50 µL/eye (compounds and fluorometholone 1 mg/mL, loteprednol 5 mg/mL)): 22.5 ± 2.1 mmHg
Ocular pathological score ([3]; 1 mg/mL, 40 µL/eye, 3 times a day for 2 days): 7.1 ± 0.7
ocular abnormalities / ocular pathological score ([3]; compared with the model group): significantly improved the ocular abnormalities and reduced the ocular pathological score
Wetting length of phenol red cotton threads (mm) D0 ([4]; D0, 1 mg/mL, 50 µL/eye, 3 times a day for 14 days): 26.35 ± 5.52 mm
Wetting length of phenol red cotton threads (mm) D3 [4, 7]: 29.45 ± 5.48' mm
Wetting length of phenol red cotton threads (mm) D7 [4, 8]: 30.41 ± 5.29" mm
Wetting length of phenol red cotton threads (mm) D15 [4, 9]: 32.26 ± 3.69 mm
tear secretion ([4]; compared with the model group): significantly increased the tear secretion on day 15
Tear film break-up time (s) D3 [5, 7]: 43.17 ± 14.47 s
Tear film break-up time (s) D7 [5, 8]: 47.33 ± 16.37 s
Tear film break-up time (s) D15 [5, 9]: 51.33 ± 13.44" s
tear film break-up time ([5]; compared with the model group): significantly increased the tear film break-up time on day 15

C[C@@H]1C[C@H]2[C@@H]3CCC4=CC(=O)C=C[C@]4(C)[C@@]3(F)[C@@H](O)C[C@]2(C)[C@@]1(O)C(=O)CO [Dexamethasone, reference compound]
Macroscopic injury score [6]: 5.00 ± 0.66

From EP4635969A1, “NOVEL GLUCOCORTICOID, METHOD FOR PREPARING SAME, AND USE THEREOF” (Tianjin Pharmaceutical Biotechnology Co., Ltd., priority 2022, dated 2024)
